Experimental data from patent US11565231B2, “Substrates, peptide arrays, and methods” (Vibrant Holdings, LLC, priority 2012, dated 2023).

Legend:
[1] = test system: antibodies of clinically proven celiac positive samples; experiment: Immunological binding assay on Periphilin-1 overlapping peptide array; conditions: Periphilin-1 spanned as overlapping 12 amino acid peptides, signals significant when exceeding background (400) by a factor of 50
Experimental: Immunological binding assays were performed on an array produced using the materials and methods described in the Examples above. The samples that were used to run the assays included clinically proven celiac positive samples.
The immunoactive regions of Periphilin-1 were determined. With reference to FIG. 17, the microarray substrate including the Periphilin-1 sequence split into 12 amino acid length peptide sequences is shown. […] Determination of background noise, background subtraction, and identification of signals that exceed background noise routine and well within the level of ordinary skill in the microarray binding arts. In this example, the mean background signal intensity was estimated to be 400 and signals were determined to be significant when they exceeded background by a factor of 50.

[2] = test system: IgA from a celiac positive sample; experiment: Antibody assay (B peptides) on peptide array, IgA binding
Experimental: A peptide array comprising peptide fragment sequences synthesized on the surface of the array was generated according to the methods described above. The peptide array was developed to test all 12 mer sequences from alpha-gliadin, including sequences where glutamine was substituted with glutamate, as described above (see, e.g., FIGS. 15 and 16). A reduction reaction was performed to remove the disulfide bonds that exist between cysteine residues. This reaction was not performed when epitopes involving cyclic peptides based on cysteine bonds are needed. Dithiothreitol was prepared in a concentration of 0.1 g per 20 mL PBS-Tween (PBST). The peptide microarray (herein referred to as the peptide chip) was immersed in the DTT solution and placed in a nitrogen atmosphere at a pressure of 40 Pa at room temperature for 1 hour. […]
The peptide array was then analyzed to detect antibody/peptide complexes. […]
A set of 12-mer sequences generating weakly or strongly positive binding signals to celiac positive samples was compiled (see, e.g., Table A in Appendix A of U.S. Provisional Application No. 61/761,347, incorporated herein by reference). Using a computer programmed to undertake sequence analysis, subsequences present within this set of 12-mer sequences were determined using a series of sliding windows having a minimum length of 3 amino acids and maximum length of 11 amino acids. […]

subsequence identified for antibody binding [1] | immune dominant subsequence (epitope) for antibody response amongst celiac positive subjects ([2]; alpha-gliadin 12-mer array incl. deamidated sequences, celiac positive samples) | sample binding hits ([2]; celiac-positive serum sample, IgA binding, FIG. 18, Row QPE, Column QPF) | Substance
key subsequence for antibody binding |  |  | PQQPEQII
 | key immune dominant subsequence | 91.78% | QPEQPF [QPE-QPF]
